This experiment addresses T1, human TNAP (Homo sapiens, UniProt P05186).
T1 construct: host or cells: COS1 cells, concentrated and dialyzed culture supernatant
T1 sequence (P05186 18-502 limits assumed): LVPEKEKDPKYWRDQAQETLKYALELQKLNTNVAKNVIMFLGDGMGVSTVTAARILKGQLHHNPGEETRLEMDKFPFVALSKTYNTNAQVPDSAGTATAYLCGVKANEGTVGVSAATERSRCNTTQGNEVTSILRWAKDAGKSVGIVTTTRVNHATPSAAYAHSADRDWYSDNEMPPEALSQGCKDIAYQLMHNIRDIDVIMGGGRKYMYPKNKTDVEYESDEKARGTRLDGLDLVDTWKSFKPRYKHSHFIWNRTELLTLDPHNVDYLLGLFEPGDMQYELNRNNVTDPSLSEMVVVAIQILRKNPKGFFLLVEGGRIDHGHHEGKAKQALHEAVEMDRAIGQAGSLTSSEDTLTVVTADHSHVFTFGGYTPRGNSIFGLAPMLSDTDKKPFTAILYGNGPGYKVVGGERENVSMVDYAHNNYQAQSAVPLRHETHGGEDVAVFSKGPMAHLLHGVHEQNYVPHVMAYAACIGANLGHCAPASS
Description: Inhibitory test of TNAP activity (pNPP substrate, p-nitrophenol production). It is filed as biochemical. The following applies: human TNAP from culture supernatant of transfected COS1 cells, 60 minutes at room temperature, ABS 405 nm. The procedure:
<Test Examples> (Test Example 1) Inhibitory Test of TNAP Activity
COS1 cells (DS Pharma Biomedical Co., Ltd.) were transfected with human TNAP (OriGene Technologies, Inc.) using Lipofectamine LTX & Plus reagent (Invitrogen Corp.). On the next day, the medium was replaced with a fresh medium, and the cells were cultured in an incubator for 3 days. After 3 days, the culture supernatant was collected and concentrated by centrifugation at 5000 G for 30 minutes using Amicon 14, 10^4 cut (Merck Millipore). The concentrated culture supernatant was dialyzed against 5 L of 50 mM Tris/200 mM NaCl/1 mM MgCl2/20 μM ZnCl2 twice and used as an enzyme source (enzyme solution). The substrate pNPP (ProteoChem Inc.) was adjusted to 3.1 mM with Milli-Q water, and a solution of each test compound dissolved in dimethyl sulfoxide (DMSO; Wako Pure Chemical Industries, Ltd.) by 6 serial dilutions at a 5-fold common ratio from 100 μM or DMSO was added thereto at a final concentration of 1% by volume. The enzyme solution adjusted to 2 μg/mL with an assay buffer (200 mM Tris/2 mM MgCl2/0.04 mM ZnCl2/0.01% Tween 20) was added in the same amount of the substrate solution and incubated at room temperature for 60 minutes. Then, the absorbance (ABS: 405 nm) was measured using a microplate reader (model plus 384, Molecular Devices, LLC), and the concentration of produced p-nitrophenol was calculated.
The IC50 is the midpoint of a concentration-inhibition curve. High values mean weaker potency in that assay, low ones greater potency in that assay. Molecule `O=C(O)COc1ccc(-c2cc(Cl)cc(F)c2NS(=O)(=O)c2cccnc2)cc1` [Example 16, ({5′-Chloro-3′-fluoro-2′-[(pyridine-3-sulfonyl)amino][1,1′-biphenyl]-4-yl}oxy)acetic acid] had an IC50 of 2.4 nM.

As to `CC(C)Oc1cncc(S(=O)(=O)Nc2c(F)cc(Cl)cc2-c2ccc(OC(C)(C)C(=O)O)cc2)c1` [Example 26, 2-{[5′-Chloro-3′-fluoro-2′-({5-[(propan-2-yl)oxy]pyridine-3-sulfonyl}amino)[1,1′-biphenyl]-4-yl]oxy}-2-methylpropanoic acid], the IC50 was 0.19 nM.

`Cc1cncc(S(=O)(=O)Nc2c(F)cc(Cl)cc2-c2ccc(OCC(=O)O)cc2)c1` [Example 17, ({5′-Chloro-3′-fluoro-2′-[(5-methylpyridine-3-sulfonyl)amino][1,1′-biphenyl]-4-yl}oxy)acetic acid] had an IC50 of 0.3 nM.

Molecule `Cc1cncc(S(=O)(=O)Nc2c(Cl)cc(Cl)cc2-c2ccc(OCC(=O)O)cc2)c1` [Example 15, ({3′,5′-Dichloro-2′-[(5-methylpyridine-3-sulfonyl)amino][1,1′-biphenyl]-4-yl}oxy)acetic acid] registered an IC50 of 0.9 nM.

`Cc1cncc(S(=O)(=O)Nc2c(F)cc(Cl)cc2-c2ccc(C(C)C(=O)O)cc2)c1` (racemic) [Example 32, 2-{5′-Chloro-3′-fluoro-2′-[(5-methylpyridine-3-sulfonyl)amino][1,1′-biphenyl]-4-yl}propanoic acid] registered a 50% inhibitory concentration (IC50) of 0.17 nM.

In turn, `Cc1cncc(S(=O)(=O)Nc2c(F)cc(Cl)cc2-c2ccc(OC(C)(C)C(=O)O)c(F)c2)c1` [Example 27, 2-({5′-Chloro-3,3′-difluoro-2′-[(5-methylpyridine-3-sulfonyl)amino][1,1′-biphenyl]-4-yl}oxy)-2-methylpropanoic acid] yielded an IC50 of 0.68 nM.

As for `COc1cncc(S(=O)(=O)Nc2c(Cl)cc(Cl)cc2-c2ccc(S(C)(=O)=O)c(F)c2)c1` [Example 21, N-[3,5-Dichloro-3′-fluoro-4′-(methanesulfonyl)[1,1′-biphenyl]-2-yl]-5-methoxypyridine-3-sulfonamide], the midpoint of inhibition, the IC50, lay at 1.2 nM.

Regarding `CCC(C(=O)O)c1ccc(-c2cc(Cl)cc(F)c2NS(=O)(=O)c2cncc(C)c2)cc1` (centres unmarked) [Example 33, 2-{5′-Chloro-3′-fluoro-2′-[(5-methylpyridine-3-sulfonyl)amino][1,1′-biphenyl]-4-yl}butanoic acid], the IC50 came to 0.14 nM.

In the case of `COc1cncc(S(=O)(=O)Nc2c(Cl)cc(Cl)cc2-c2ccc(OC(C)C(=O)O)cc2)c1` (centres unmarked) [Example 19, 2-({3′,5′-Dichloro-2′-[(5-methoxypyridine-3-sulfonyl)amino][1,1′-biphenyl]-4-yl}oxy)propanoic acid], the IC50 amounted to 0.49 nM.

`O=C(O)COc1ccc(-c2cc(Cl)cc(Cl)c2NS(=O)(=O)c2cccnc2)cc1` [Example 1, ({3′,5′-Dichloro-2′-[(pyridine-3-sulfonyl)amino][1,1′-biphenyl]-4-yl}oxy)acetic acid]: inhibition was half-maximal at 5.5 nM (IC50).

In the case of `CC(C)(Oc1ccc(-c2cc(Cl)cc(Cl)c2NS(=O)(=O)c2cccnc2)cc1)C(=O)O` [Example 14, 2-({3′,5′-Dichloro-2′-[(pyridine-3-sulfonyl)amino][1,1′-biphenyl]-4-yl}oxy)-2-methylpropanoic acid], 2.6 nM corresponded to half-maximal inhibition (IC50).

As for `CC(C)(Oc1ccc(-c2cc(Cl)cc(F)c2NS(=O)(=O)c2cncc(S(C)(=O)=O)c2)cc1)C(=O)O` [Example 28, 2-[(5′-Chloro-3′-fluoro-2′-{[5-(methanesulfonyl)pyridine-3-sulfonyl]amino}[1,1′-biphenyl]-4-yl)oxy]-2-methylpropanoic acid], it took 2.6 nM to reach half-maximal inhibition (IC50).

In the case of `CC(Oc1ccc(-c2cc(Cl)cc(Cl)c2NS(=O)(=O)c2cccnc2)cc1)C(=O)O` (centres unmarked) [Example 13, 2-({3′,5′-Dichloro-2′-[(pyridine-3-sulfonyl)amino][1,1′-biphenyl]-4-yl}oxy)propanoic acid], the IC50 is 3.5 nM.

`Cc1ncncc1S(=O)(=O)Nc1c(F)cc(Cl)cc1-c1ccc(OC(C)(C)C(=O)O)cc1` [Example 23, 2-({5′-Chloro-3′-fluoro-2′-[(4-methylpyrimidine-5-sulfonyl)amino][1,1′-biphenyl]-4-yl}oxy)-2-methylpropanoic acid]: the IC50 came out at 2.4 nM.

On to `COc1cncc(S(=O)(=O)Nc2c(F)cc(Cl)cc2-c2ccc(OC(C)(C)C(=O)O)cc2)c1` [Example 18, 2-({5′-Chloro-3′-fluoro-2′-[(5-methoxypyridine-3-sulfonyl)amino][1,1′-biphenyl]-4-yl}oxy)-2-methylpropanoic acid], for which the IC50 was 0.23 nM.

Consider `COc1ccncc1S(=O)(=O)Nc1c(F)cc(Cl)cc1-c1ccc(OC(C)(C)C(=O)O)cc1` [Example 25, 2-({5′-Chloro-3′-fluoro-2′-[(4-methoxypyridine-3-sulfonyl)amino][1,1′-biphenyl]-4-yl}oxy)-2-methylpropanoic acid], for which 0.41 nM corresponded to half-maximal inhibition (IC50).

`COc1cncc(S(=O)(=O)Nc2c(Cl)cc(Cl)cc2-c2ccc(CC(=O)O)cc2)c1` [Example 22, {3′,5′-Dichloro-2′-[(5-methoxypyridine-3-sulfonyl)amino][1,1′-biphenyl]-4-yl}acetic acid] gave an IC50 of 0.28 nM.

Molecule `CCc1ccncc1S(=O)(=O)Nc1c(F)cc(Cl)cc1-c1ccc(OC(C)(C)C(=O)O)cc1` [Example 24, 2-({5′-Chloro-2′-[(4-ethylpyridine-3-sulfonyl)amino]-3′-fluoro[1,1′-biphenyl]-4-yl}oxy)-2-methylpropanoic acid] displayed an IC50 of 0.2 nM.

Regarding `COc1cncc(S(=O)(=O)Nc2c(Cl)cc(Cl)cc2-c2ccc(C(F)(F)C(=O)O)cc2)c1` [Example 20, {3′,5′-Dichloro-2′-[(5-methoxypyridine-3-sulfonyl)amino][1,1′-biphenyl]-4-yl}(difluoro)acetic acid], half-maximal inhibition (IC50) required 0.36 nM.

The molecule `Cc1cncc(S(=O)(=O)Nc2c(Cl)cc(Cl)cc2-c2ccc(OC(C)(C)C(=O)O)cc2)c1` [Example 2, 2-({3′,5′-Dichloro-2′-[(5-methylpyridine-3-sulfonyl)amino][1,1′-biphenyl]-4-yl}oxy)-2-methylpropanoic acid] registered a half-inhibitory concentration (IC50) of 0.5 nM.

The record behind these values is patent US11932600B2, “Biaryl derivative” (DAIICHI SANKYO COMPANY, LIMITED, priority 2018, dated 2024).
